Data: patent US20210107886A1, “PREPARATION OF CYCLIC ACETALS FOR FUEL” (TRIAD NATIONAL SECURITY, LLC, priority 2019, published 2021)
Like-named read-outs stand apart in the source and are kept apart here.

Legend:
Water solubility = type: physicochemical
[1] = Cloud point of dioxolane blends with 7-component surrogate diesel; type: physicochemical
Method: The dioxolanes were blended in percentages of 10%, 20%, or 30% with a 7-component surrogate diesel.
The values range from −9.9° C. to −13.3° C. The numbers of the samples correspond with the dioxolanes as-referenced in FIG. 30. Cloud point is a quality specification for diesel fuels. This is an indicator of the tendency of a fuel to form wax crystals when cold. These crystals can clog the atomizer that injects fuel into the combustion chamber of a diesel engine. Cloud point specifications are a maximum temperature. A material with lower cloud point is more desirable.

Boiling point = type: physicochemical
[2] = Lower heating value (LHV); type: physicochemical
Description: (§1) Two additional factors to consider for diesel fuel formulation are density and net heat of combustion (NHOC). Typically, for a chemical compound to be able to be blended with diesel, it should not decrease the density of the fuel mixture below 0.82 g mL-^1, as the energy content of the fuel brought into the engine is dependent on the density of the fuel.^17, 25 Compounds 1-5 maintained densities slightly higher than that of biodiesel, H1-H3, and petroleum diesel. A related metric is the NHOC, which is a measure of the energy contained in a given quantity of a compound. Additionally reported in Table 2 is the lower heating value (LHV) of compounds 1-5. The LHV of a fuel is defined as the amount of heat released by combusting a specified quantity (initially at 25° C.) and returning the temperature of the combustion products to 150° C., which assumes the latent heat of vaporization of water in the reaction products is not recovered.

Flash point = type: physicochemical
[3] = Density (Anton Paar SVM 3001); type: physicochemical; details: 25° C.
Method: (§2) All chemicals and reagent grade solvents were obtained from commercial vendors and were used as received. ^1H and ^13C NMR spectra were obtained at room temperature on a Bruker AV400 MHz spectrometer, with chemical shifts (6) referenced to the residual solvent signal (^1H and ^13C). GC/MS analysis was carried out using a Hewlett-Packard 6890 GC system equipped with a Hewlett-Packard 5973 mass selective detector. FT-IR measurements were collected on a Perkin Elmer Spectrum Two FT-IR, where a drop of compound was pressed between two KBr plates. FTIR shifts were: very strong (vs), strong (s), medium (m), and weak (w). Combustion calorimeter measurements were performed using an IKA C1 compact combustion calorimeter, the NHOC was calculated by taking into consideration the hydrogen content and subtracting from the gross heat of combustion. DSC measurements were performed using a Netzsch DCS 204 F1 Phoenix. Viscosity and density measurements were performed using an Anton Paar SVM 3001. Elemental analysis was performed by Atlantic Microlabs. YSI measurements were conducted at Yale University.
as §1

[4] = Kinematic viscosity (Anton Paar SVM 3001); type: physicochemical; details: 40° C.
Method: as §2
The physical properties of the five distinct dioxolanes obtained were analyzed to understand their potential as suitable fuel components.^4-5, 8, 16, 18-20 A tabulated summary of these properties are provided in Table 2. The first metric considered was viscosity. […] If a fuel's viscosity falls outside of the ASTM D 975 specification (>4 mm^2 s^−1), it often leads to poor atomization of the fuel, which results in poor combustion and a subsequent loss of power and decrease in fuel economy.^7 In this respect, compounds 1-5 could be used to thin biodiesel to meet standards for petroleum diesel.

[5] = Net heat of combustion (combustion calorimeter); type: physicochemical
Method: as §2, §1

[6] = taken from references; cited from earlier work
[7] = 40° C.; taken from references; cited from earlier work
[8] = 25° C.; taken from references; cited from earlier work
[9] = taken from references, cited from earlier work; for Freezing/MP: freezing point: first value of cell; for Freezing/MP: melting point: second value of cell
[10] = 10% dioxolane in 7-component surrogate diesel (surrogate alone −10.5 ° C.)
[11] = 20% dioxolane in 7-component surrogate diesel (surrogate alone −10.5 ° C.)
[12] = 30% dioxolane in 7-component surrogate diesel (surrogate alone −10.5 ° C.)

Q: Which results are given for `CCC(CC)C1OC(C)C(C)O1` (centres unmarked) [Compound 1, 2-(1-Ethylpropyl)-4,5-dimethyl-1,3-dioxolane]?
A: solubility (Water solubility): < 40 µg/mL; Cloud point of blend [1, 10]: −10.3 °C; Cloud point of blend [1, 11]: −10.8 °C; Cloud point of blend [1, 12]: −10.8 °C; Boiling Point (Boiling point): 174 °C; LHV (lower heating value) [2]: 32.98 mJ/kg; Flash Point (Flash point): 54.4 °C; Density [3]: 0.893 g/mL; Viscosity [4]: 1.26 mm^2 s^−1; NHOC (net heat of combustion) [5]: 29.45 mJ/L

Q: For `CCCCC(CC)C1OC(C)C(C)O1` (centres unmarked) [Compound 2, 2-(1-Ethylpentyl)-4,5-dimethyl-1,3-dioxolane], which solubility (Water solubility) is on record?
A: < 40 µg/mL

Q: And the “Cloud point of blend” value [1, 10]?
A: −10.3 °C

Q: What about the “Cloud point of blend” value [1, 11] of the same compound?
A: −10.8 °C

Q: What about the “Cloud point of blend” value [1, 12] of the same compound?
A: −12.5 °C

Q: And the “Boiling Point” value (Boiling point)?
A: 184 °C

Q: What about the “LHV (lower heating value)” value [2] of the same compound?
A: 34.36 mJ/kg

Q: What about the “Flash Point” value (Flash point) of the same compound?
A: 58.3 °C

Q: What about the Density [3] of the same compound?
A: 0.885 g/mL

Q: What about the Viscosity [4] of the same compound?
A: 1.88 mm^2 s^−1

Q: What about the “NHOC (net heat of combustion)” value [5] of the same compound?
A: 30.41 mJ/L

Q: Which results are given for `CCCC1OC(C)C(C)O1` (centres unmarked) [Compound 3, 4,5-Dimethyl-2-propyl-1,3-dioxolane]?
A: solubility (Water solubility): < 40 µg/mL; Cloud point of blend [1, 10]: −11.5 °C; Cloud point of blend [1, 11]: −12 °C; Cloud point of blend [1, 12]: −13.3 °C; Boiling Point (Boiling point): 161 °C; LHV (lower heating value) [2]: 30.95 mJ/kg; Flash Point (Flash point): 42.5 °C; Density [3]: 0.894 g/mL; Viscosity [4]: 0.94 mm^2 s^−1; NHOC (net heat of combustion) [5]: 27.67 mJ/L

Q: Which results are given for `CCCCCC1OC(C)C(C)O1` (centres unmarked) [Compound 4, 4,5-Dimethyl-2-pentyl-1,3-dioxolane]?
A: solubility (Water solubility): < 40 µg/mL; Cloud point of blend [1, 10]: −10.1 °C; Cloud point of blend [1, 11]: −10.8 °C; Cloud point of blend [1, 12]: −10.4 °C; Boiling Point (Boiling point): 177 °C; LHV (lower heating value) [2]: 32.92 mJ/kg; Flash Point (Flash point): 69.5 °C; Density [3]: 0.887 g/mL; Viscosity [4]: 1.49 mm^2 s^−1; NHOC (net heat of combustion) [5]: 29.20 mJ/L

Q: What does the source list for `CCCCCCCC1OC(C)C(C)O1` (centres unmarked) [Compound 5, 4,5-Dimethyl-2-heptyl-1,3-dioxolane]?
A: solubility (Water solubility): < 40 µg/mL; Cloud point of blend [1, 10]: −9.9 °C; Cloud point of blend [1, 11]: −10.8 °C; Cloud point of blend [1, 12]: −11.6 °C; Boiling Point (Boiling point): 188 °C; LHV (lower heating value) [2]: 34.04 mJ/kg; Flash Point (Flash point): 79.5 °C; Density [3]: 0.883 g/mL; Viscosity [4]: 2.34 mm^2 s^−1; NHOC (net heat of combustion) [5]: 30.06 mJ/L

Q: For `CCCCCCCCCCCC1(C)OC(C)C(C)O1` (centres unmarked) [H1, 2,4,5-trimethyl-2-undecyl-1,3-dioxolane], which “NHOC (net heat of combustion)” value [6] is on record?
A: 31.99 mJ/L

Q: What about the Viscosity [7] of the same compound?
A: 4.44 mm^2 s^−1

Q: And the Density [8]?
A: 0.868 g/mL

Q: What about the “Freezing/MP: freezing point” value [9] of the same compound?
A: −51 °C

Q: What about the “Freezing/MP: melting point” value [9] of the same compound?
A: −18 °C

Q: Which “NHOC (net heat of combustion)” value [6] does the source give for `CCCCCCCCCCCC1(C)OCC(C)O1` (centres unmarked) [H2, 2,4-dimethyl-2-undecyl-1,3-dioxolane] here?
A: 31.99 mJ/L

Q: What about the Viscosity [7] of the same compound?
A: 5.15 mm^2 s^−1

Q: What about the Density [8] of the same compound?
A: 0.872 g/mL

Q: And the “Freezing/MP: freezing point” value [9]?
A: −48 °C

Q: And the “Freezing/MP: melting point” value [9]?
A: −14 °C

Q: For `CCCCCCCCCCCC1(C)OCCO1` [H3, 2-methyl-2-undecyl-1,3-dioxolane], which “NHOC (net heat of combustion)” value [6] is on record?
A: 32.28 mJ/L

Q: And the Viscosity [7]?
A: 4.98 mm^2 s^−1

Q: And the Density [8]?
A: 0.883 g/mL

Q: What about the “Freezing/MP: freezing point” value [9] of the same compound?
A: −25 °C

Q: And the “Freezing/MP: melting point” value [9]?
A: 0 °C
